Laboratory results taken from US11110075B2, “Use of daphnetin in improving function of aortic endothelial cell” (XI'AN JIAOTONG UNIVERSITY, priority 2019, dated 2021).

Key:
[1] = test system: interleukin-6 (IL-6) mRNA; test: IL-6 mRNA level detection by RT-PCR in palmitic acid treated HAECs; type: cell-based, human; settings: FIG. 2
Experimental: (§1) Human aortic endothelial cells (HAECs) were purchased from Shanghai Bioleaf Biotech Co., Ltd. Palmitic acid (PA) was purchased from SIGMA Company. A palmitic acid solution having a concentration of 500 μM was prepared by dissolving palmitic acid in water. A cell culture incubator was adopted to culture the cells in a temperature-constant, humidified, sterile condition. The cells were cultured in wells of culture plates at an atmosphere of 95% air and 5% CO2 at 37° C. in the incubator. The experiments were performed on different experimental groups of cells.
The HAECs that were previously cultured in a 12-well cell culture plate were divided into 4 different experimental groups and respectively applied with daphnetin in the respective concentrations, 0 μM, 0 μM, 50 μM, 100 μM, and all followed with an 24-hour incubation. Then, the last 3 groups of cells were respectively applied with 500 μM palmitic acid, the first was not, and all followed with another 24-hour incubation. The detecting of mRNA levels corresponding to interleukin-6 (IL-6) was respectively carried out on each group of cells by using reverse transcription RNA and real-time quantitative polymerase chain reaction (PCR), and the specific method is as follows:
The medium for cell culture in the wells was removed. 500 μL of TRIzol™ reagent was added to each well, and the culture plate was then shaken at room temperature for 5 minutes. Then the cells in the wells were collected and transferred to a 1.5 mL eppendorf (EP) tube. 200 μl (taking […] of total volume of the substance in the EP tube) of chloroform was then added to the EP tube for extraction of […]. The samples were then vigorously stirred for 15 seconds, rested for 15 minutes at room temperature, and then centrifuged at a relative centrifugal force of 12,000 g for 10 minutes at 4° C. […] The concentration of the solution was measured by an ultraviolet spectrophotometer. […]

[2] = test system: human aortic endothelial cells (HAECs); test: MTT assay, viability of HAECs inhibited by palmitic acid; type: cell-based; settings: HAECs pretreated with 10 μM daphnetin 24 h, then 500 μM palmitic acid 24 h; vs palmitic acid treated cells without daphnetin; FIG. 1
Experimental: as §1
The HAECs that were previously cultured in a 12-well cell culture plates were divided into 6 different experimental groups and respectively applied with daphnetin in different concentrations, 0 μM, 1 μM, 10 μM, 50 μM, 100 μM, and 200 μM, all followed with an 24-hour incubation. Then, each of the 6 groups of cells was further divided into two subgroups; one was applied with 500 μM palmitic acid, the other was not, and all followed with another 24-hour incubation.
An MTT assay was performed to all groups of cells. […] The absorbance was measured at a wavelength of 490 nm in a spectrophotometer. The absorbance of this colored solution can be quantified by measuring at a certain wavelength (usually between 500 and 600 nm) by a spectrophotometer.

[3] = test system: mitochondrial membrane fusion related protein Mfn1; test: Western blot protein detection of Mfn1 in palmitic acid treated HAECs; type: cell-based, human; settings: FIG. 3A, 3B
Experimental: (§2) Human aortic endothelial cells (HAECs) were purchased from Shanghai Bioleaf Biotech Co., Ltd. Palmitic acid (PA) was purchased from SIGMA Company. A palmitic acid solution having a concentration of 500 μM was prepared by dissolving palmitic acid in water. A cell culture incubator was adopted to culture the cells in a temperature-constant, humidified, sterile condition. The cells were cultured in wells of culture plates at an atmosphere of 95% air and 5% CO2 at 37° C. in the incubator. The experiments were performed on different experimental groups of cells. The HAECs that were previously cultured in a 6-well cell culture plate were divided into 3 different experimental groups, the control (Ctrl) group, the PA group, and the DAP+PA group. The cells of the DAP+PA group were applied with daphnetin in a concentration of 100 μM followed with a 24-hour incubation. Then, the cells of both the PA group and the DAP+PA group were applied with 500 μM palmitic acid, all followed with another 24-hour incubation. The protein detection was respectively carried out on each group of cells as follows. The medium for cell culture in the wells was removed. 150 μL of IP lysis buffer was added to each well of the culture plate. […] The supernatants were collected, and the proteins therein were quantified by bicinchoninic acid (BCA) assay, and normalized. […] Target proteins were detected by chemiluminescence.

[4] = test system: mitochondrial membrane fusion related protein Mfn2; test: Western blot protein detection of Mfn2 in palmitic acid treated HAECs; type: cell-based, human; settings: 500 μM palmitic acid 24 h (PA group) vs control group, FIG. 3A, 3B
Experimental: as §2

Row | Structure (SMILES) | concentration dependence of inhibition of IL-6 mRNA level ([1]; HAECs pretreated with 50 μM or 100 μM daphnetin, then 500 μM palmitic acid) | mRNA level corresponding to IL-6 ([1]; HAECs pretreated with 100 μM daphnetin 24 h, then 500 μM palmitic acid 24 h, vs palmitic acid alone) | relative cell viability [2] | relative protein expression level of Mfn1 ([3]; 100 μM daphnetin 24 h then 500 μM palmitic acid 24 h (DAP+PA group) vs PA group) | expression of Mfn2 [4] | increase of mRNA level corresponding to IL-6 ([1]; HAECs, 500 μM palmitic acid 24 h without daphnetin, vs control group) | expression of Mfn1 ([3]; 500 μM palmitic acid 24 h (PA group) vs control group)
1 | O=c1ccc2ccc(O)c(O)c2o1 [daphnetin, 7,8-dihydroxycoumarin] | inhibition effect increases with the concentration | significantly decreased | higher viabilities | significantly increasing |  |  | 
2 | CCCCCCCCCCCCCCCC(=O)O [palmitic acid] |  |  |  |  | reducing the expression | about 20 times | reducing the expression
